Source: US20250243186A1, “PIPERIDINYL INDOLE DERIVATIVES, PREPARATION METHODS AND MEDICINAL USES THEREOF” (HANSOH BIO LLC, priority 2021, published 2025)

Target: Recombinant human Factor B catalytic domain (Homo sapiens (Human), UniProt P00751)
Assay: Factor B binding assay by TR-FRET
Conditions: Factor B TR-FRET IC50 (nM), 10 nM his-tagged Factor B catalytic domain, 100 nM tracer, 1 h
Procedure: • 1. […] 5× Kinase Buffer A (Thermo Fisher, CAT #PV3189) • 3. LANCE Eu-W1024 Anti-6×His Antibody (PerkinElmer, CAT #AD0401) • 4.
DMSO (Thermo Fisher Scientific) • 6. Compounds—10 mM stock in DMSO • 7. Victor Nivo multimode plate reader (PerkinElmer) • 8.
Factor B binding affinity of each compound tested was determined using a time-resolved fluorescence resonance energy transfer (TR-FRET) technology. 10 nM recombinant his-tagged Factor B catalytic domain, varying concentrations of inhibitors, 4 nM LANCE Eu-W1024 Anti-6×His Antibody and 100 nM TR-FRET_tool2 tracer was incubated in 1× Kinase Buffer A for 1 h. Measurement was performed in a reaction volume of 15 μL by adding 5 μL of the test compound, 5 μL of Factor B/antibody mixture and 5 μL of tracer into white opaque 384-well assay plates.

Chain of Recombinant human Factor B catalytic domain (P00751 470-764): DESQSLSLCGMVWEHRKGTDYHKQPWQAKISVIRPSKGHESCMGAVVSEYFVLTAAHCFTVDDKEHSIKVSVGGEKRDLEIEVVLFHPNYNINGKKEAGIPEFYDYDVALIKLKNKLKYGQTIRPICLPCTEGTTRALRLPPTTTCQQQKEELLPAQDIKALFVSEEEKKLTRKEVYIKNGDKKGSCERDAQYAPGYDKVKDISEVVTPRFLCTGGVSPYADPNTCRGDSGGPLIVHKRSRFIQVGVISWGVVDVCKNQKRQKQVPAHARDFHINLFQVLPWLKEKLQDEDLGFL

Row | SMILES | IC50 [nM]
1 | COc1cc(C)c2[nH]ccc2c1CN1CCC2(CC1c1ccc(C(=O)O)cc1)CC2(F)F (single isomer, unassigned) [8 (Isomer 2), 4-(1,1-difluoro-6-((5-methoxy-7-methyl-1H-indol-4-yl)methyl)-6-azaspiro[2.5]octan-5-yl)benzoic acid] | 245
2 | Cc1cc(C)c2[nH]ccc2c1CN1CCC2(CCCO2)CC1c1ccc(C(=O)O)cc1 (single isomer, unassigned) [2 (Isomer 3), 4-(8-((5,7-dimethyl-1H-indol-4-yl)methyl)-1-oxa-8-azaspiro[4.5]decan-7-yl)benzoic acid] | 507
3 | COc1cc(C)c2[nH]ccc2c1C(C)N1CC2CCCC2C1c1ccc(C(=O)O)cc1 (single isomer, unassigned) [37 (Isomer 4), 4-(2-(1-(5-methoxy-7-methyl-1H-indol-4-yl)ethyl)octahydrocyclopenta[c]pyrrol-1-yl)benzoic acid] | 359
4 | COc1cc(C)c2[nH]ccc2c1CN1CC2(CCOC2)CC1c1ccc(C(=O)O)cc1 (single isomer, unassigned) [28 (Isomer 2), 4-(7-((5-methoxy-7-methyl-1H-indol-4-yl)methyl)-2-oxa-7-azaspiro[4.4]nonan-8-yl)benzoic acid] | 81.5
5 | Cc1cc(C)c2[nH]ccc2c1CN1CCC2(CCCO2)CC1c1ccc(C(=O)O)cc1 (single isomer, unassigned) [2 (Isomer 6), 4-(8-((5,7-dimethyl-1H-indol-4-yl)methyl)-1-oxa-8-azaspiro[4.5]decan-7-yl)benzoic acid] | 60
6 | COc1cc(C)c2[nH]ccc2c1CN1CC2CC3(CC3)CC2C1c1ccc(C(=O)O)cc1 (single isomer, unassigned) [29 (Isomer 2), 4-(2-((5-methoxy-7-methyl-1H-indol-4-yl)methyl)hexahydro-1H-spiro[cyclopenta[c]pyrrole-5,1′-cyclopropan]-1-yl)benzoic acid] | 43.7
7 | Cc1cc(C2CC2)c(CN2CC3CCCC3C2c2ccc(C(=O)O)cc2)c2cc[nH]c12 (single isomer, unassigned) [32 (Isomer 1), 4-(2-((5-cyclopropyl-7-methyl-1H-indol-4-yl)methyl)octahydrocyclopenta[c]pyrrol-1-yl)benzoic acid] | 26.3
8 | COc1cc(C)c2[nH]ccc2c1CN1CC2CC(C(F)F)CC2C1c1ccc(C(=O)O)cc1 (single isomer, unassigned) [39 (Isomer 3), 4-(5-(difluoromethyl)-2-((5-methoxy-7-methyl-1H-indol-4-yl)methyl)octahydrocyclopenta[c]pyrrol-1-yl)benzoic acid] | 7.3
9 | COc1cc(C)c2[nH]ccc2c1CN1CC2CC(C(F)F)CC2C1c1ccc(C(=O)O)cc1 (single isomer, unassigned) [39 (Isomer 1), 4-(5-(difluoromethyl)-2-((5-methoxy-7-methyl-1H-indol-4-yl)methyl)octahydrocyclopenta[c]pyrrol-1-yl)benzoic acid] | 2.6
10 | Cc1cc(C)c2[nH]ccc2c1CN1CCC(C(F)F)CC1c1ccc(C(=O)O)cc1 (single isomer, unassigned) [6 (Isomer 2), 4-(4-(difluoromethyl)-1-((5,7-dimethyl-1H-indol-4-yl)methyl)piperidin-2-yl)benzoic acid] | 142
11 | COc1cc(C)c2[nH]ccc2c1CN1CCC2(CCC1c1ccc(C(=O)O)cc1)CC2(F)F (single isomer, unassigned) [24 (Isomer 1), 4-(1,1-difluoro-6-((5-methoxy-7-methyl-1H-indol-4-yl)methyl)-6-azaspiro[2.6]nonan-7-yl)benzoic acid] | 1410
12 | COc1cc(C)c2[nH]ccc2c1CN1CCC2(CCC1c1ccc(C(=O)O)cc1)CC2(F)F (single isomer, unassigned) [24 (Isomer 2), 4-(1,1-difluoro-6-((5-methoxy-7-methyl-1H-indol-4-yl)methyl)-6-azaspiro[2.6]nonan-7-yl)benzoic acid] | 729
13 | COc1cc(C)c2[nH]ccc2c1C(C)N1CC2CCCC2C1c1ccc(C(=O)O)cc1 (single isomer, unassigned) [37 (Isomer 1), 4-(2-(1-(5-methoxy-7-methyl-1H-indol-4-yl)ethyl)octahydrocyclopenta[c]pyrrol-1-yl)benzoic acid] | 322
14 | COc1cc(C)c2[nH]ccc2c1C(C)N1CC2CCCC2C1c1ccc(C(=O)O)cc1 (single isomer, unassigned) [37 (Isomer 3), 4-(2-(1-(5-methoxy-7-methyl-1H-indol-4-yl)ethyl)octahydrocyclopenta[c]pyrrol-1-yl)benzoic acid] | 222
15 | COc1cc(C)c2[nH]ccc2c1CN1CCCCC1c1ccc(C(=O)O)cc1C(F)F (single isomer, unassigned) [26 (Isomer 1), 3-(difluoromethyl)-4-(1-((5-methoxy-7-methyl-1H-indol-4-yl)methyl)piperidin-2-yl)benzoic acid] | 31.5
16 | Cc1cc(C)c2[nH]ccc2c1CN1CCC(CCCO)=CC1c1ccc(C(=O)O)cc1 (single isomer, unassigned) [2 (Isomer 2), 4-(1-((5,7-dimethyl-1H-indol-4-yl)methyl)-4-(3-hydroxypropyl)-1,2,5,6-tetrahydropyridin-2-yl)benzoic acid] | 360

Now from value to compound:

Row | IC50 [nM] | SMILES
17 | 125 | COc1cc(C)c2[nH]ccc2c1CN1CCC2(CCOC2)CC1c1ccc(C(=O)O)cc1 (single isomer, unassigned) [36 (Isomer 3), 4-(8-((5-methoxy-7-methyl-1H-indol-4-yl)methyl)-2-oxa-8-azaspiro[4.5]decan-7-yl)benzoic acid]
18 | 4.8 | COc1cc(C)c2[nH]ccc2c1CN1CCC2(CCO2)CC1c1ccc(C(=O)O)cc1 (single isomer, unassigned) [38 (Isomer 4), 4-(7-((5-methoxy-7-methyl-1H-indol-4-yl)methyl)-1-oxa-7-azaspiro[3.5]nonan-6-yl)benzoic acid]
19 | 7.7 | COc1cc(C)c2[nH]ccc2c1CN1C[C@@H]2CC(C)(C)C[C@@H]2C1c1ccc(C(=O)O)cc1 (single isomer, unassigned) [34 (Isomer 1)]
20 | 180 | COc1cc(C)c2[nH]ccc2c1CN1C[C@@H]2CC(C)(C)C[C@@H]2C1c1ccc(C(=O)O)cc1 (single isomer, unassigned) [34 (Isomer 2)]
21 | 4 | COc1cc(C)c2[nH]ccc2c1CN1CCC2(CC1c1ccc(C(=O)O)cc1)CC(C)(F)C2 (single isomer, unassigned) [42 (Isomer 1), 4-(2-fluoro-7-((5-methoxy-7-methyl-1H-indol-4-yl)methyl)-2-methyl-7-azaspiro[3.5]nonan-6-yl)benzoic acid]
22 | 132 | COc1cc(C)c2[nH]ccc2c1CN1CC2(CCOCC2)CC1c1ccc(C(=O)O)cc1 (centres unmarked) [Example 30, 4-(2-((5-methoxy-7-methyl-1H-indol-4-yl)methyl)-8-oxa-2-azaspiro[4.5]decan-3-yl)benzoic acid]

Same assay, conditions: read-out: Factor B TR-FRET IC50; 10 nM his-tagged Factor B catalytic domain, 100 nM tracer, 1 h

Row | SMILES | IC50 [nM]
23 | [2H]C([2H])([2H])Oc1cc(C)c2[nH]ccc2c1CN1CCC2(C[C@H]1c1ccc(C(=O)O)cc1)CC(F)(F)C2 [Example 82] | < 2
24 | Cc1cc(Br)c(CN2CCC3(C[C@H]2c2ccc(C(=O)O)cc2)CC(F)(F)C3)c2cc[nH]c12 (single isomer, unassigned) [78 (Isomer 1)] | 7.4

Results, then the compound that gave them:

Row | IC50 [nM] | SMILES
25 | 173 | Cc1cc(C)c2[nH]ccc2c1CN1CCC(CCO)=CC1c1ccc(C(=O)O)cc1 (centres unmarked) [Example 4, 4-(1-((5,7-dimethyl-1H-indol-4-yl)methyl)-4-(2-hydroxyethyl)-1,2,5,6-tetrahydropyridin-2-yl)benzoic acid]
26 | < 2 | Cc1cc(C)c2[nH]ccc2c1CN1CCC2(C[C@H]1c1ccc(C(=O)O)cc1)CC(F)(F)C2 (single isomer, unassigned) [76 (Isomer 1)]
27 | 2.1 | CCOc1cc(C)c2[nH]ccc2c1CN1CCC2(C[C@H]1c1ccc(C(=O)O)cc1)CC(F)(F)C2 [Example 86]
28 | < 2 | COc1cc(C)c2[nH]ccc2c1CN1CCC2(C[C@H]1c1ccc(C(=O)O)c(F)c1)CC(F)(F)C2 [Example 64]
29 | 844 | COc1cc(C)c2[nH]ccc2c1CN1CC(CF)CC1c1ccc(C(=O)O)cc1 (centres unmarked) [Example 21, 4-(4-(fluoromethyl)-1-((5-methoxy-7-methyl-1H-indol-4-yl)methyl)pyrrolidin-2-yl)benzoic acid]
30 | 265 | Cc1cc(C)c2[nH]ccc2c1CN1C[C@@H]2CCCCC2C1c1ccc(C(=O)O)cc1 (stereo in doubt) [Example 10, 4-(2-((5,7-dimethyl-1H-indol-4-yl)methyl)octahydro-1H-isoindol-1-yl)benzoic acid]
31 | 322 | COc1cc(C)c2[nH]ccc2c1CN1CCCCC1c1ccc(C(=O)O)c(C(F)F)c1 (centres unmarked) [Example 25, 2-(difluoromethyl)-4-(1-((5-methoxy-7-methyl-1H-indol-4-yl)methyl)piperidin-2-yl)benzoic acid]
32 | < 2 | COc1cc(C)c2[nH]ccc2c1CN1CCC2(C[C@H]1c1ccc(C(=O)O)c(C)c1)CC(F)(F)C2 [Example 62]
33 | < 2 | COc1cc(C)c2[nH]ccc2c1CN1CCC2(C[C@H]1c1ccc(C(=O)O)c3ccccc13)CC(F)(F)C2 [Example 85]
34 | 923 | Cc1cc(C)c2[nH]ccc2c1CN1CC2CC2C1c1ccc(C(=O)O)cc1 (centres unmarked) [Example 1, 4-(3-((5,7-dimethyl-1H-indol-4-yl)methyl)-3-azabicyclo[3.1.0]hexan-2-yl)benzoic acid]
35 | 143 | COc1cc(C)c2[nH]ccc2c1CN1CC2CN(CC(F)F)CC2C1c1ccc(C(=O)O)cc1 (centres unmarked) [Example 23, 4-(5-(2,2-difluoroethyl)-2-((5-methoxy-7-methyl-1H-indol-4-yl)methyl)octahydropyrrolo[3,4-c]pyrrol-1-yl)benzoic acid]
36 | < 2 | CCc1cc(C)c2[nH]ccc2c1CN1CCC2(C[C@H]1c1ccc(C(=O)O)cc1)CC(F)(F)C2 [Example 80]
37 | 47.3 | C=C(F)c1cc(C)c2[nH]ccc2c1CN1CCC2(C[C@H]1c1ccc(C(=O)O)cc1)CC(F)(F)C2 [Example 81]
38 | 3.1 | COc1cc(C)c2[nH]ccc2c1CN1CCC2(C[C@H]1c1ccc3c(C(=O)O)cccc3c1)CC(F)(F)C2 [Example 84]
